For assay [1], the target named is T1, Endothelin receptor type B (Homo sapiens, UniProt P24530).
T1 sequence (P24530 whole entry): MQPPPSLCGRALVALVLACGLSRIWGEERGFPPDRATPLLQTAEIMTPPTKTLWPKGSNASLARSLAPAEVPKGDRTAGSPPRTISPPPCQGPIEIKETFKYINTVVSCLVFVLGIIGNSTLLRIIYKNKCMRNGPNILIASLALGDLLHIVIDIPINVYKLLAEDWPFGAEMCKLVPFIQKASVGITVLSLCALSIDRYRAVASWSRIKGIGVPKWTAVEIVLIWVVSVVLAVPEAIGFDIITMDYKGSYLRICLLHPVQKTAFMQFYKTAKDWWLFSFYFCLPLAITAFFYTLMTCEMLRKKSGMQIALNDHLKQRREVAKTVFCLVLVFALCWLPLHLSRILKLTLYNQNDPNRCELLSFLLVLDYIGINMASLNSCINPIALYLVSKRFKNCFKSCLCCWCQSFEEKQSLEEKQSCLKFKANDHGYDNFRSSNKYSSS
Kind of assay: Antagonist activity towards human recombinant Endothelin B receptor expressed in chinese hamster ovary (CHO) cells determined using [125I]ET1 as radioligand. The format is functional, cell-based.

For another assay, the target named is T2, Endothelin-1 receptor (Homo sapiens, UniProt P25101).
T2 sequence (P25101 whole entry): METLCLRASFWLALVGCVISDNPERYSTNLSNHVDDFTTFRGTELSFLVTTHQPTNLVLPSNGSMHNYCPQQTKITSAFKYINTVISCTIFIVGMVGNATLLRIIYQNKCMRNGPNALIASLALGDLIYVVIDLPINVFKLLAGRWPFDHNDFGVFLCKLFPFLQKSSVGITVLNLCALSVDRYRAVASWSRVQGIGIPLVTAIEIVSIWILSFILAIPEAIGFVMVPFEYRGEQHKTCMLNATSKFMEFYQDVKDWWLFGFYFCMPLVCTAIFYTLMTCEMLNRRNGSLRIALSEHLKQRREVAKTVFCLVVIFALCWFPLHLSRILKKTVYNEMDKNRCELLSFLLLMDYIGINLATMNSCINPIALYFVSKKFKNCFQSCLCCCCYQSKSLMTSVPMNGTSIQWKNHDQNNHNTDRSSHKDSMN
The assay can be described thus: Antagonist activity towards human recombinant Endothelin A receptor expressed in chinese hamster ovary (CHO) cells determined using [125I]ET1 as radioligand. The format is functional, cell-based.

The text below walks through data of ChEMBL document CHEMBL1149183, “Novel benzo[1,4]diazepin-2-one derivatives as endothelin receptor antagonists” (J Med Chem, 2004).

The term IC50 denotes the concentration that inhibits the measured activity by half.

In the case of `COc1ccc(CN2C(=O)CN[C@](c3ccc(C)cc3)([C@H](Oc3nc(C)cc(C)n3)C(=O)O)c3ccccc32)cc1`, the IC50 in assay [1] worked out at 181 nM; on Endothelin-1 receptor it was 221 nM.
The corresponding values for `Cc1cc(C)nc(O[C@H](C(=O)O)[C@@]2(c3ccccc3)NCc3nnc(CC(=O)O)n3-c3ccccc32)n1` (racemic) are 261 nM and 58.8 nM.
On to `Cc1cc(C)nc(O[C@H](C(=O)O)[C@@]2(c3ccccc3)NCC(=O)N(CC(=O)O)c3ccccc32)n1` (racemic), for which the IC50 in assay [1] came to 558 nM; at Endothelin-1 receptor, 13 nM.
The corresponding values for `Cc1cc(C)nc(O[C@H](C(=O)O)[C@@]2(c3ccccc3)NCC(=O)N(Cc3ccc(Cl)cc3)c3ccccc32)n1` (racemic) are 122 nM and 17.3 nM.
On the same counts, the results for `COc1ccccc1O[C@H](C(=O)O)[C@@]1(c2ccccc2)NCC(=O)N(Cc2c(Cl)cccc2Cl)c2ccccc21` (racemic) are greater than 10000 nM and 5920 nM.
On the same counts, the results for `Cc1cc(C)nc(O[C@H](C(=O)O)[C@@]2(c3ccccc3)NCC(=O)N(Cc3ccccc3C)c3ccccc32)n1` (racemic) are 55 nM and 8.9 nM.
Consider `COc1ccc(CN2C(=O)CN[C@](c3cccc(C(F)(F)F)c3)([C@H](Oc3nc(C)cc(C)n3)C(=O)O)c3ccccc32)cc1` (racemic), for which the IC50 in assay [1] was determined as 241 nM; at Endothelin-1 receptor, 24.9 nM.
Regarding `Cc1cc(C)nc(O[C@H](C(=O)O)[C@@]2(c3ccccc3)NCC(=O)N(Cc3cccc(Br)c3)c3ccccc32)n1` (racemic), the concentration for half-maximal inhibition (IC50) in assay [1] amounted to 25.5 nM; on Endothelin-1 receptor it was 6.4 nM.
For the compound `Cc1ccccc1O[C@H](C(=O)O)[C@@]1(c2ccccc2)NCC(=O)N(Cc2c(Cl)cccc2Cl)c2ccccc21` (racemic), the IC50 (in assay [1]; at Endothelin-1 receptor) was greater than 10000 nM each time.
With `Cc1cc(C)nc(O[C@H](C(=O)O)[C@@]2(c3ccccc3)NCC(=O)N(Cc3ccc(F)cc3F)c3ccccc32)n1` (racemic), the IC50 in assay [1] stood at 109 nM; on Endothelin-1 receptor, 6 nM.
As to `Cc1cc(C)nc(O[C@H](C(=O)O)[C@@]2(c3ccccc3)NCC(=O)N(Cc3cccc(C(F)(F)F)c3)c3ccccc32)n1` (racemic), the IC50 in assay [1] was 15.6 nM; at Endothelin-1 receptor it was 9.1 nM.
On to `COc1cc(OC)cc(O[C@H](C(=O)O)[C@@]2(c3ccccc3)NCC(=O)N(C)c3cc(OC)ccc32)c1` (racemic), for which the results for the IC50 (in assay [1]; at Endothelin-1 receptor) were 7780 nM and 3950 nM, respectively.
The corresponding values for `COc1cc(OC)cc(O[C@H](C(=O)O)[C@@]2(c3ccccc3)NCC(=O)N(C)c3cc(OC)c(OC)cc32)c1` (racemic) are 8030 nM and 443 nM.
Take `Cc1cc(C)nc(O[C@H](C(=O)O)[C@@]2(c3ccccc3)NCC(=O)N(CC3CCCCC3)c3ccccc32)n1` (racemic): the IC50 stood at 82 nM in assay [1] and 83.4 nM at Endothelin-1 receptor.
On to `COc1cc(OC)cc(O[C@H](C(=O)O)[C@@]2(c3ccccc3)NCC(=O)N(C)c3ccccc32)c1` (racemic), for which the IC50 in assay [1] is 6270 nM.
As to `O=C(O)[C@@H](Oc1ccccc1Cl)[C@@]1(c2ccccc2)NCC(=O)N(Cc2c(Cl)cccc2Cl)c2ccccc21` (racemic), the IC50 (in assay [1]; on Endothelin-1 receptor) was greater than 10000 nM throughout.
For `CC(C)c1ccc(O[C@H](C(=O)O)[C@@]2(c3ccccc3)NCC(=O)N(Cc3c(Cl)cccc3Cl)c3ccccc32)cc1` (racemic), the IC50 in assay [1] was 8620 nM; on Endothelin-1 receptor, greater than 10000 nM.
In the case of `Cc1ccc(C)c(O[C@H](C(=O)O)[C@@]2(c3ccccc3)NCC(=O)N(Cc3c(Cl)cccc3Cl)c3ccccc32)c1` (racemic), the results for the IC50 (in assay [1]; on Endothelin-1 receptor) were greater than 1000 nM and greater than 10000 nM, respectively.
The corresponding values for `Cc1ccc(CN2C(=O)CN[C@](c3ccccc3)([C@H](Oc3nc(C)cc(C)n3)C(=O)O)c3ccccc32)cc1` (racemic) are 68.8 nM and 30.5 nM.
On to `COc1ccc(CN2C(=O)CN[C@](c3ccccc3F)([C@H](Oc3nc(C)cc(C)n3)C(=O)O)c3ccccc32)cc1` (racemic), for which the IC50 in assay [1] came out at 80.2 nM.
For `COCCOCN1C(=O)CN[C@](c2ccccc2)([C@H](Oc2nc(C)cc(C)n2)C(=O)O)c2ccccc21` (racemic), the results for the IC50 (in assay [1]; on Endothelin-1 receptor) were 47.8 nM and 7.5 nM, respectively.
In the case of `O=C(O)[C@@H](Oc1ccccc1)[C@@]1(c2ccccc2)NCC(=O)N(Cc2c(Cl)cccc2Cl)c2ccccc21` (racemic), the IC50 in assay [1] is 3700 nM; at Endothelin-1 receptor, 211 nM.
Turning to `Cc1cc(C)nc(O[C@H](C(=O)O)[C@@]2(c3ccccc3)NCC(=O)N(CCN(C)C)c3ccccc32)n1` (racemic), the IC50 in assay [1] came out at 1780 nM; at Endothelin-1 receptor it was 387 nM.
`CN1C(=O)CN[C@](c2ccccc2)([C@H](Oc2ncccn2)C(=O)O)c2ccccc21` (racemic): in assay [1], the IC50 was greater than 10000 nM.
Take `COc1ccc(CN2C(=O)CN[C@](c3cc(C)cc(C)c3)([C@H](Oc3nc(C)cc(C)n3)C(=O)O)c3ccccc32)cc1` (racemic): the IC50 in assay [1] was determined as 761 nM; on Endothelin-1 receptor, 278 nM.
Regarding `Cc1cc(C)nc(O[C@H](C(=O)O)[C@@]2(c3ccccc3)NCC(=O)N(Cc3cccc(F)c3F)c3ccccc32)n1` (racemic), the half-inhibitory concentration (IC50) in assay [1] is 18.5 nM; at Endothelin-1 receptor it was 3.7 nM.
Take `Cc1cccc(O[C@H](C(=O)O)[C@@]2(c3ccccc3)NCC(=O)N(Cc3c(Cl)cccc3Cl)c3ccccc32)c1C` (racemic): the IC50 in assay [1] was greater than 1000 nM; on Endothelin-1 receptor, greater than 10000 nM.
As to `COc1cc(OC)cc(O[C@H](C(=O)O)[C@@]2(c3ccccc3)NCC(=O)N(Cc3c(Cl)cccc3Cl)c3ccccc32)c1` (racemic), the IC50 was determined as 392 nM in assay [1] and 46.2 nM on Endothelin-1 receptor.
On the same counts, the results for `Cc1cc(C)cc(O[C@H](C(=O)O)[C@@]2(c3ccccc3)NCC(=O)N(Cc3c(Cl)cccc3Cl)c3ccccc32)c1` (racemic) are 109 nM and 20.5 nM.
On the same counts, the results for `Cc1cc(C)nc(O[C@H](C(=O)O)[C@@]2(c3ccccc3)NCC(=O)N(Cc3ccc(Br)cc3)c3ccccc32)n1` (racemic) are 119 nM and 25.8 nM.
On the same counts, the results for `Cc1cc(C)nc(O[C@H](C(=O)O)[C@@]2(c3ccccc3)NCC(=O)N(Cc3cc(F)cc(F)c3)c3ccccc32)n1` (racemic) are 13.1 nM and 7.9 nM.
For `COc1ccc(CN2C(=O)CN[C@](c3cccc(F)c3)([C@H](Oc3nc(C)cc(C)n3)C(=O)O)c3ccccc32)cc1` (racemic), the IC50 was found to be 49.3 nM in assay [1] and 9.1 nM on Endothelin-1 receptor.
As for `Cc1cc(C)nc(O[C@H](C(=O)O)[C@@]2(c3ccccc3)NCC(=O)N(CCCc3ccccc3)c3ccccc32)n1` (racemic), the figures for the IC50 (in assay [1]; on Endothelin-1 receptor) were 18.3 nM and 17.1 nM, respectively.
For the compound `Cc1cc(C)nc(O[C@H](C(=O)O)[C@@]2(c3ccccc3)NCC(=O)N(Cc3ccc(C(C)(C)C)cc3)c3ccccc32)n1` (racemic), the results for the IC50 (in assay [1]; on Endothelin-1 receptor) were 24.1 nM and 17.1 nM, respectively.
Regarding `Cc1cc(C)nc(O[C@H](C(=O)O)[C@@]2(c3ccccc3)NCC(=O)N(CC3CC3)c3ccccc32)n1` (racemic), the figures for the IC50 (in assay [1]; on Endothelin-1 receptor) were 87.8 nM and 7.3 nM, respectively.
As to `O=C(O)[C@@H](Oc1cccc(Cl)c1)[C@@]1(c2ccccc2)NCC(=O)N(Cc2c(Cl)cccc2Cl)c2ccccc21` (racemic), the IC50 worked out at 3150 nM in assay [1] and 101 nM at Endothelin-1 receptor.
Take `COc1cc(OC)cc(O[C@H](C(=O)O)[C@@]2(c3ccccc3)NCC(=O)N(C)c3cc(Cl)ccc32)c1` (racemic): the figures for the IC50 (in assay [1]; on Endothelin-1 receptor) were 5600 nM and 3840 nM, respectively.
As for `Cc1cc(C)nc(O[C@H](C(=O)O)[C@@]2(c3ccccc3)NCC(=O)N(Cc3ccc(C(=O)O)cc3)c3ccccc32)n1` (racemic), the IC50 in assay [1] stood at 3530 nM; at Endothelin-1 receptor, 123 nM.
The corresponding values for `Cc1cc(C)nc(O[C@H](C(=O)O)[C@@]2(c3ccccc3)NCC(=O)N(Cc3ccccc3Cl)c3ccccc32)n1` (racemic) are 48.1 nM and 10.2 nM.
On the same counts, the results for `Cc1cc(C)nc(O[C@H](C(=O)O)[C@@]2(c3ccccc3)NCC(=O)N(Cc3ccccc3C(F)(F)F)c3ccccc32)n1` (racemic) are 22.5 nM and 104 nM.
As for `CN1C(=O)CN[C@](c2ccccc2)([C@H](Oc2ncc(Br)cn2)C(=O)O)c2ccccc21` (racemic), the IC50 came out at 9480 nM in assay [1] and 927 nM at Endothelin-1 receptor.
With `Cc1cc(C)nc(O[C@H](C(=O)O)[C@@]2(c3ccccc3)NCc3nnc(C)n3-c3ccccc32)n1` (racemic), in assay [1], the concentration for half-maximal inhibition (IC50) was determined as 250 nM.
Regarding `Cc1cc(C)nc(O[C@H](C(=O)O)[C@@]2(c3ccccc3)NCC(=O)N(Cc3cccc(F)c3)c3ccccc32)n1` (racemic), the IC50 in assay [1] was found to be 26.8 nM; on Endothelin-1 receptor it was 6.7 nM.
`COc1cc(OC)nc(O[C@H](C(=O)O)[C@@]2(c3ccccc3)NCC(=O)N(C)c3ccccc32)n1` (racemic): the IC50 in assay [1] worked out at 473 nM; at Endothelin-1 receptor, 23.4 nM.
